Paper PMC11240139, “Exploring the antitumor potential of novel quinoline derivatives via tubulin polymerization inhibition in breast cancer; design, synthesis and molecular docking” (RSC Advances, 2024)

Key:
Assay type in all cases: cell-based
[1] = system: A549/ATCC (non-small cell lung cancer); assay: NCI-60 SRB cytotoxicity screen; conditions: Homo sapiens, single dose 10 μM, read-out: growth inhibition (GI%)
[2] = system: MCF7 (breast cancer); assay: NCI-60 SRB cytotoxicity screen; conditions: Homo sapiens; MCF7, single dose 10 μM; read-out: growth inhibition (GI%)
[3] = system: EKVX (non-small cell lung cancer); assay: NCI-60 SRB cytotoxicity screen; conditions: Homo sapiens, single dose 10 μM, read-out: growth inhibition (GI%)
[4] = system: PC-3 (prostate cancer); assay: NCI-60 SRB cytotoxicity screen; conditions: PC-3, single dose 10 μM; read-out: growth inhibition (GI%)
[5] = system: NCI-H23 (non-small cell lung cancer); assay: NCI-60 SRB cytotoxicity screen; conditions: Homo sapiens; NCI-H23, single dose 10 μM; read-out: growth inhibition (GI%)
[6] = system: U251 (CNS cancer); assay: NCI-60 SRB cytotoxicity screen; conditions: Homo sapiens, U-251; U251, single dose 10 μM; read-out: growth inhibition (GI%)
[7] = system: HL-60(TB) (leukemia); assay: NCI-60 SRB cytotoxicity screen; conditions: Homo sapiens, single dose 10 μM, read-out: growth inhibition (GI%)
[8] = system: SK-MEL-2 (melanoma); assay: NCI-60 SRB cytotoxicity screen; conditions: Homo sapiens; SK-MEL-2, single dose 10 μM; read-out: growth inhibition (GI%)
[9] = system: K-562 (leukemia); assay: NCI-60 SRB cytotoxicity screen; conditions: Homo sapiens; K-652 [sic], single dose 10 μM; read-out: growth inhibition (GI%)
[10] = system: TK-10 (renal cancer); assay: NCI-60 SRB cytotoxicity screen; conditions: Homo sapiens; TK-10, single dose 10 μM; read-out: growth inhibition (GI%)
[11] = system: BT-549 (breast cancer); assay: NCI-60 SRB cytotoxicity screen; conditions: Homo sapiens; BT-549, single dose 10 μM; read-out: growth inhibition (GI%)
[12] = system: HCT-15 (colon cancer); assay: NCI-60 SRB cytotoxicity screen; conditions: Homo sapiens; HCT-15, single dose 10 μM; read-out: growth inhibition (GI%)
[13] = system: MOLT-4 (leukemia); assay: NCI-60 SRB cytotoxicity screen; conditions: Homo sapiens; MOLT-4, single dose 10 μM; read-out: growth inhibition (GI%)
[14] = system: COLO 205 (colon cancer); assay: NCI-60 SRB cytotoxicity screen; conditions: Homo sapiens; COLO 205, single dose 10 μM; read-out: growth inhibition (GI%)
[15] = system: MALME-3M (melanoma); assay: NCI-60 SRB cytotoxicity screen; conditions: Homo sapiens, single dose 10 μM, read-out: growth inhibition (GI%)
[16] = system: 786-0 (renal cancer); assay: NCI-60 SRB cytotoxicity screen; conditions: Homo sapiens; 786-0, single dose 10 μM; read-out: growth inhibition (GI%)
[17] = system: 60 cancer cell lines (NCI); assay: NCI-60 single-dose screen, overall verdict over the panel; conditions: single dose 10 μM, whole panel
How it was run: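 Compounds were tested at a single 10^−5 M dose across the NCI 60 cell line panel, with cells preincubated 24 h before treatment. Viability was measured by TCA fixation and sulforhodamine B staining, absorbance 540 nm. % cytotoxicity = [1 − (sample/negative control absorbance)] × 100.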

[18] = system: SK-OV-3 (ovarian cancer); assay: NCI-60 SRB cytotoxicity screen; conditions: Homo sapiens; SK-OV-3, single dose 10 μM; read-out: growth inhibition (GI%)
[19] = system: SF-268 (CNS cancer); assay: NCI-60 SRB cytotoxicity screen; conditions: Homo sapiens; SF-268, single dose 10 μM; read-out: growth inhibition (GI%)
[20] = system: HCT-116 (colon cancer); assay: NCI-60 SRB cytotoxicity screen; conditions: Homo sapiens; HCT-116, single dose 10 μM; read-out: growth inhibition (GI%)
[21] = system: NCI/ADR-RES (ovarian cancer); assay: NCI-60 SRB cytotoxicity screen; conditions: Homo sapiens, single dose 10 μM, read-out: growth inhibition (GI%)
[22] = system: RXF 393 (renal cancer); assay: NCI-60 SRB cytotoxicity screen; conditions: Homo sapiens; RXF 393, single dose 10 μM; read-out: growth inhibition (GI%)
[23] = system: OVCAR-3 (ovarian cancer); assay: NCI-60 SRB cytotoxicity screen; conditions: Homo sapiens; OVCAR-3, single dose 10 μM; read-out: growth inhibition (GI%)
[24] = system: SNB-19 (CNS cancer); assay: NCI-60 SRB cytotoxicity screen; conditions: Homo sapiens; SNB-19, single dose 10 μM; read-out: growth inhibition (GI%)
[25] = system: HCC-2998 (colon cancer); assay: NCI-60 SRB cytotoxicity screen; conditions: Homo sapiens; HCC-2998, single dose 10 μM; read-out: growth inhibition (GI%)
[26] = system: SW-620 (colon cancer); assay: NCI-60 SRB cytotoxicity screen; conditions: Homo sapiens; SW-620, single dose 10 μM; read-out: growth inhibition (GI%)
[27] = system: ACHN (renal cancer); assay: NCI-60 SRB cytotoxicity screen; conditions: Homo sapiens, single dose 10 μM, read-out: growth inhibition (GI%)
[28] = system: NCI-H522 (non-small cell lung cancer); assay: NCI-60 SRB cytotoxicity screen; conditions: Homo sapiens; NCI-H522, single dose 10 μM; read-out: growth inhibition (GI%)
[29] = system: SK-MEL-28 (melanoma); assay: NCI-60 SRB cytotoxicity screen; conditions: Homo sapiens; SK-MEL-28, single dose 10 μM; read-out: growth inhibition (GI%)
[30] = system: SNB-75 (CNS cancer); assay: NCI-60 SRB cytotoxicity screen; conditions: Homo sapiens, SNB-75, SNB-75, single dose 10 μM; read-out: growth inhibition (GI%)
[31] = system: SF-539 (CNS cancer); assay: NCI-60 SRB cytotoxicity screen; conditions: Homo sapiens; SF-539, single dose 10 μM; read-out: growth inhibition (GI%)
[32] = system: CAKI-1 (renal cancer); assay: NCI-60 SRB cytotoxicity screen; conditions: Homo sapiens; CAKI-1, single dose 10 μM; read-out: growth inhibition (GI%)
[33] = system: NCI-H322M (non-small cell lung cancer); assay: NCI-60 SRB cytotoxicity screen; conditions: Homo sapiens, single dose 10 μM, read-out: growth inhibition (GI%)
[34] = system: OVCAR-5 (ovarian cancer); assay: NCI-60 SRB cytotoxicity screen; conditions: Homo sapiens; OVCAR-5, single dose 10 μM; read-out: growth inhibition (GI%)
[35] = system: UACC-62 (melanoma); assay: NCI-60 SRB cytotoxicity screen; conditions: Homo sapiens; UACC-62, single dose 10 μM; read-out: growth inhibition (GI%)

## CCc1cccc2cc(C3C=C(c4ccc(Br)cc4)NC(=S)N3)c(Cl)nc12 (stereo not drawn) [Compound 6e, 6-(4-Bromophenyl)-4-(2-chloro-8-ethylquinolin-3-yl)-3,4-dihydropyrimidine-2(1H)-thione]
[1]
  inhibition at 10 µM: < 10%
[2]
  inhibition at 10 µM: 18.4%
[3]
  inhibition at 10 µM: < 10%
[4]
  inhibition at 10 µM: < 10%
[5]
  inhibition at 10 µM: < 10%
[6]
  inhibition at 10 µM: < 10%
[7]
  inhibition at 10 µM: < 10%
[8]
  inhibition at 10 µM: < 10%
[9]
  inhibition at 10 µM: < 10%
[10]
  inhibition at 10 µM: < 10%
[11]
  inhibition at 10 µM: < 10%
[12]
  inhibition at 10 µM: < 10%
[13]
  inhibition at 10 µM: 26.2%
[14]
  inhibition at 10 µM: < 10%
[15]
  inhibition at 10 µM: < 10%
[16]
  inhibition at 10 µM: < 10%
[17]
  cytotoxic activity over the cell lines (in words): limited cytotoxic activity
[18]
  inhibition at 10 µM: 10.7%
[19]
  inhibition at 10 µM: < 10%
[20]
  inhibition at 10 µM: 10.5%
[21]
  inhibition at 10 µM: < 10%
[22]
  inhibition at 10 µM: < 10%
[23]
  inhibition at 10 µM: < 10%
[24]
  inhibition at 10 µM: < 10%
[25]
  inhibition at 10 µM: < 10%
[26]
  inhibition at 10 µM: < 10%
[27]
  inhibition at 10 µM: < 10%
[28]
  inhibition at 10 µM: < 10%
[29]
  inhibition at 10 µM: < 10%
[30]
  inhibition at 10 µM: < 10%
[31]
  inhibition at 10 µM: < 10%
[32]
  inhibition at 10 µM: 10.4%
[33]
  inhibition at 10 µM: < 10%
[34]
  inhibition at 10 µM: < 10%
[35]
  inhibition at 10 µM: < 10%

## CCc1cccc2cc(C3C=C(c4ccc(F)cc4)NC(=S)N3)c(Cl)nc12 (stereo not drawn) [Compound 6d, 4-(2-Chloro-8-ethylquinolin-3-yl)-6-(4-fluorophenyl)-3,4-dihydropyrimidine-2(1H)-thione]
[1]
  inhibition at 10 µM: < 10%
[2]
  inhibition at 10 µM: 24.6%
[3]
  inhibition at 10 µM: < 10%
[4]
  inhibition at 10 µM: 22%
[5]
  inhibition at 10 µM: 11.8%
[6]
  inhibition at 10 µM: < 10%
[7]
  inhibition at 10 µM: < 10%
[8]
  inhibition at 10 µM: < 10%
[9]
  inhibition at 10 µM: 27.6%
[10]
  inhibition at 10 µM: < 10%
[11]
  inhibition at 10 µM: < 10%
[12]
  inhibition at 10 µM: 26.2%
[13]
  inhibition at 10 µM: 48.8%
[14]
  inhibition at 10 µM: < 10%
[15]
  inhibition at 10 µM: < 10%
[16]
  inhibition at 10 µM: < 10%
[17]
  cytotoxic activity over the cell lines (in words): limited cytotoxic activity
[18]
  inhibition at 10 µM: < 10%
[19]
  inhibition at 10 µM: 14.9%
[20]
  inhibition at 10 µM: 21.5%
[21]
  inhibition at 10 µM: 17%
[22]
  inhibition at 10 µM: < 10%
[23]
  inhibition at 10 µM: < 10%
[24]
  inhibition at 10 µM: < 10%
[25]
  inhibition at 10 µM: < 10%
[26]
  inhibition at 10 µM: < 10%
[27]
  inhibition at 10 µM: < 10%
[28]
  inhibition at 10 µM: 25%
[29]
  inhibition at 10 µM: < 10%
[30]
  inhibition at 10 µM: < 10%
[31]
  inhibition at 10 µM: < 10%
[32]
  inhibition at 10 µM: 26.1%
[33]
  inhibition at 10 µM: < 10%
[34]
  inhibition at 10 µM: < 10%
[35]
  inhibition at 10 µM: 14.2%

## CCc1cccc2cc(-c3cc(-c4ccc(OC)cc4)[nH]c(=S)c3C#N)c(Cl)nc12 [Compound 5a, 4-(2-Chloro-8-ethylquinolin-3-yl)-6-(4-methoxyphenyl)-2-thioxo-1,2-dihydropyridine-3-carbonitrile]
[1]
  inhibition at 10 µM: < 10%
[2]
  inhibition at 10 µM: 20.8%
[3]
  inhibition at 10 µM: 10.3%
[4]
  inhibition at 10 µM: < 10%
[5]
  inhibition at 10 µM: 11.8%
[6]
  inhibition at 10 µM: < 10%
[7]
  inhibition at 10 µM: 14.9%
[8]
  inhibition at 10 µM: < 10%
[9]
  inhibition at 10 µM: 28.8%
[10]
  inhibition at 10 µM: < 10%
[11]
  inhibition at 10 µM: 20.4%
[12]
  inhibition at 10 µM: < 10%
[13]
  inhibition at 10 µM: 12.7%
[14]
  inhibition at 10 µM: < 10%
[15]
  inhibition at 10 µM: < 10%
[16]
  inhibition at 10 µM: < 10%
[17]
  cytotoxic activity over the cell lines (in words): slight cytotoxic activity
[18]
  inhibition at 10 µM: < 10%
[19]
  inhibition at 10 µM: 23.1%
[20]
  inhibition at 10 µM: 14.8%
[21]
  inhibition at 10 µM: < 10%
[22]
  inhibition at 10 µM: 20.6%
[23]
  inhibition at 10 µM: < 10%
[24]
  inhibition at 10 µM: 13.2%
[25]
  inhibition at 10 µM: < 10%
[26]
  inhibition at 10 µM: < 10%
[27]
  inhibition at 10 µM: < 10%
[28]
  inhibition at 10 µM: 19.6%
[29]
  inhibition at 10 µM: < 10%
[30]
  inhibition at 10 µM: 21.6%
[31]
  inhibition at 10 µM: < 10%
[32]
  inhibition at 10 µM: 44.7%
[33]
  inhibition at 10 µM: 17.6%
[34]
  inhibition at 10 µM: < 10%
[35]
  inhibition at 10 µM: 20.5%
